Test results as given in US20150094294A1, “COMPOUNDS AND METHODS FOR TREATING MALARIA” (Cellceutix Corporation, priority 2012, published 2015).
≈ marks a conversion by molar mass, not a printed value.

Assays:
Assay type in all cases: cell-based
[1] = Cytotoxicity against HepG2 cells; conditions: human, HepG2 cells; read-out: Cytotoxicity HepG2 EC50
[2] = Cytotoxicity against 3T3 cells; conditions: mouse, 3T3 cells; read-out: Cytotoxicity 3T3 EC50
in vitro = test: in vitro
[3] = system: P. falciparum 3D7 (chloroquine-sensitive); test: Anti-malarial activity, P. falciparum 3D7 culture, 72 hour, DNA content by flow cytometry; conditions: Plasmodium falciparum, 3D7, 72 h, synchronized ring-stage parasites
Description: Numerous compounds were screened in cultures of the malaria parasite P. falciparum 3D7 (chloroquine-sensitive) and DD2 (chloroquine-resistant). The compounds were also screened for toxixcity against 3T3 cells, HepG2 cells, and in a hemolysis assay. In brief, P. falciparum parasites were cultured in RPMI 1640 (Invitrogen) supplemented with Albumax II (Invitrogen). For synchronization, schizont stage parasites were magnet purified using a SuperMACS™ II Cell Separation Unit (Miltenyi Biotech). For IC50 determinations, synchronized ring-stage parasites were plated at 0.5% parasitemia and 8% hematocrit in 96-well plates at a total volume of 50 μL. Serial dilutions of 2× concentration of the respective compound, ranging from 2.5 μM to 20 nM, were added to the wells to bring the total volume up to 100 μL and 4% hematocrit. Compounds were assayed for a 72 hour period, after which the cultures were fixed with a solution of 4% paraformaldehyde and 0.08% glutaraldhyde in PBS. The cells were then permeabilized with 0.25% Triton X-100, and SYTOX Green Nucleic Acid Stain (Invitrogen) in PBS was added to a final concentration of 5 μM. DNA content, as an indicator of parasitemia, was analyzed on an Accuri C6 Flow Cytometer with C-Sampler. IC50 curves were generated using GraphPad Prism (GraphPad Software).

With `CC(=O)Nc1cc(C(F)(F)F)cc(NC(=O)c2cc(C(=O)Nc3cc(C(F)(F)F)cc(N)c3SCCN)ncn2)c1SCCN` [Compound 203] the EC50 [1] was 45 µM, the EC50 [2] was 15 µM and the EC50 (in vitro) was 66 µg/mL (≈ 97.5 µM). For the same compound, the IC50 [3] was 0.085 µM.
`CN1CC[C@@H](Oc2ccc(NC(=O)c3cc(C(=O)Nc4ccc(O[C@@H]5CCN(C)C5)c(C(F)(F)F)c4)ncn3)cc2C(F)(F)F)C1` [Compound 204] showed an EC50 [1] of 483 µM, an EC50 [2] of 477 µM and an EC50 (in vitro) of 88 µg/mL (≈ 135 µM). For the same compound, the IC50 [3] was 0.103 µM.
Compound `O=C(Nc1ccc(O[C@@H]2CCNC2)c(Cl)c1)c1cc(C(=O)Nc2ccc(O[C@@H]3CCNC3)c(Cl)c2)ncn1` [Compound 205] has an EC50 [1] of 307 µM, an EC50 [2] of 40 µM and an EC50 (in vitro) of 176 µg/mL (≈ 316 µM). The IC50 [3] was 0.07 µM.
In the case of `N#Cc1cc(NC(=O)c2cc(C(=O)Nc3ccc(O[C@@H]4CCNC4)c(C#N)c3)ncn2)ccc1O[C@@H]1CCNC1` [Compound 206], the EC50 [1] is reported as over 1000 µM, the EC50 [2] is reported as over 1000 µM and the EC50 (in vitro) is reported as over 1000 µg/mL. For the same compound, the IC50 [3] was 0.179 µM.
In the case of `O=C(Nc1ccc(O[C@H]2CCNC2)cc1)c1cc(C(=O)Nc2ccc(O[C@H]3CCNC3)cc2)ncn1` [Compound 207], the EC50 [1] is reported as 819 µM, the EC50 [2] is reported as 478 µM and the EC50 (in vitro) is reported as 29 µg/mL (≈ 59.4 µM). For the same compound, the IC50 [3] was 0.182 µM.
Work on `O=C(Nc1ccc(C2CCNCC2)cc1)c1cc(C(=O)Nc2ccc(C3CCNCC3)cc2)ncn1` [Compound 208] yielded an EC50 [1] of 183 µM, an EC50 [2] of 122 µM and an EC50 (in vitro) of 12 µg/mL (≈ 24.8 µM). It also gave an IC50 [3] of 0.139 µM.
In the case of `O=C(Nc1ccc(OC2CCNCC2)nc1)c1cc(C(=O)Nc2ccc(OC3CCNCC3)nc2)ncn1` [Compound 214], the EC50 [1] is reported as over 1000 µM, the EC50 [2] is reported as over 1000 µM and the EC50 (in vitro) is reported as over 1000 µg/mL. It also gave an IC50 [3] of over 0.1 µM.
Compound `O=C(Nc1ccc(O[C@@H]2CCNC2)nc1)c1cc(C(=O)Nc2ccc(O[C@@H]3CCNC3)nc2)ncn1` [Compound 215] has an EC50 [1] of over 1000 µM, an EC50 [2] of over 1000 µM and an EC50 (in vitro) of over 1000 µg/mL. For the same compound, the IC50 [3] was over 0.1 µM.
In the case of `CN(C)C1CCN(c2ccc(NC(=O)c3cccc(C(=O)Nc4ccc(N5CCC(N(C)C)CC5)cc4)n3)cc2)CC1` [Compound 216], the EC50 [1] is reported as over 1000 µM, the EC50 [2] is reported as over 1000 µM and the EC50 (in vitro) is reported as over 1000 µg/mL. It also gave an IC50 [3] of over 0.1 µM.
Compound `CN(C)C1CCN(c2ccc(NC(=O)c3ccnc(C(=O)Nc4ccc(N5CCC(N(C)C)CC5)cc4)c3)cc2)CC1` [Compound 217] has an EC50 [1] of over 1000 µM, an EC50 [2] of over 1000 µM and an EC50 (in vitro) of over 1000 µg/mL. It also gave an IC50 [3] of over 0.1 µM.
For `N=C(N)NCCc1cccc(-c2cc(-c3cccc(CCNC(=N)N)c3)ncn2)c1` [Compound 221], the EC50 [1] was over 1000 µM, the EC50 [2] was over 1000 µM and the EC50 (in vitro) was over 1000 µg/mL. The IC50 [3] was 0.08 µM.
In the case of `N=C(N)NCCSc1nc(-c2cccc(CCNC(=N)N)c2)cc(-c2cccc(CCNC(=N)N)c2)n1` [Compound 222], the EC50 [1] is reported as over 1000 µM, the EC50 [2] is reported as 764 µM and the EC50 (in vitro) is reported as over 1000 µg/mL. For the same compound, the IC50 [3] was 0.551 µM.
Compound `NCCCc1cccc(-c2cncc(-c3ccc(-c4cncc(-c5cccc(CCCN)c5)c4)s3)c2)c1` [Compound 232] has an EC50 [1] of 56 µM, an EC50 [2] of 37 µM and an EC50 (in vitro) of 6 µg/mL (≈ 11.9 µM). It also gave an IC50 [3] of 0.273 µM.
For `N=C(N)NCCCc1cccc(-c2cncc(-c3ccc(-c4cncc(-c5cccc(CCCNC(=N)N)c5)c4)s3)c2)c1` [Compound 233], the EC50 [1] was 88 µM, the EC50 [2] was 61 µM and the EC50 (in vitro) was 2 µg/mL (≈ 3.4 µM). For the same compound, the IC50 [3] was 0.737 µM.
Work on `N=C(N)NCCc1ccc(-c2ccc(-c3ccc(CCNC(=N)N)cc3)s2)cc1` [Compound 248] yielded an EC50 [1] of 54 µM, an EC50 [2] of 50 µM and an EC50 (in vitro) of 24 µg/mL (≈ 59 µM). It also gave an IC50 [3] of 0.003 µM.
For `c1cc(N2CCNCC2)ccc1-c1ccc(-c2ccc(N3CCNCC3)cc2)s1` [Compound 252], the EC50 [1] was over 1000 µM, the EC50 [2] was over 1000 µM and the EC50 (in vitro) was 12 µg/mL (≈ 29.7 µM). It also gave an IC50 [3] of 0.004 µM.
In the case of `N=C(N)N1CCN(c2ccc(-c3ccc(-c4ccc(N5CCN(C(=N)N)CC5)cc4)s3)cc2)CC1` [Compound 253], the EC50 [1] is reported as 606 µM, the EC50 [2] is reported as 419 µM and the EC50 (in vitro) is reported as 8 µg/mL (≈ 16.4 µM). The IC50 [3] was 0.107 µM.
`N=C(N)N1CCN(c2ccc(-c3ccc(-c4ccc(N5CCN(C(=N)N)CC5)nc4)s3)cn2)CC1` [Compound 254] showed an EC50 [1] of 49 µM, an EC50 [2] of 32 µM and an EC50 (in vitro) of 36 µg/mL (≈ 73.4 µM). The IC50 [3] was 0.154 µM.
In the case of `c1cc(N2CCNCC2)ccc1-c1ccc(-c2ccc(N3CCNCC3)cc2)o1` [Compound 255], the EC50 [1] is reported as 45 µM, the EC50 [2] is reported as 29 µM and the EC50 (in vitro) is reported as 28 µg/mL (≈ 72.1 µM). The IC50 [3] was 0.152 µM.
With `c1cc(-c2ccc(N3CCNCC3)nc2)cc(-c2ccc(N3CCNCC3)nc2)c1` [Compound 257] the EC50 [1] was 220 µM, the EC50 [2] was 40 µM and the EC50 (in vitro) was over 1000 µg/mL. For the same compound, the IC50 [3] was over 0.1 µM.
